Key:
Type in all cases: biochemical
RET = target: T1, RET (Homo sapiens, UniProt P07949); assay: Inhibition of RET kinase activity, recombinant RET method (Kinase-Glo); settings: RET 2 μg/ml, poly-EY4 substrate, 20 μM ATP, two hours at 30° C.
T1 construct: purchased Upstate 14-570MG
Procedure, shortened: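 Recombinant RET at 2 μg/ml in 20 mM MOPS/NaOH pH 7.0, 1 mM EDTA, 5% glycerol, 0.01% Brij35, 0.1% 2-mercaptoethanol, 1 mg/ml BSA; compounds 10 nM–30 μM final.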

IGF-1R (h) = target: T2, IGF-1R (h) (Homo sapiens, UniProt P08069); assay: Upstate kinase panel: IGF-1R; settings: 10 μM ATP
T2 construct: purchased Upstate
Protocol: (§1) These kinases are produced by Upstate and screened according to the respective protocols indicated by the supplier (http://www.upstate.com/features/kp_protocols.asp). Examples 1, 12, 166 and 238 were tested at a concentration of 20 μM, 10 μM, 1 μM and 1 μM respectively in the presence of 10 μM of ATP for examples 1 and 12 and at the concentrations of ATP shown in parentheses for examples 166 and 238. The results shown in Table VII correspond to percentage inhibition of the kinase tested in the presence of the compound, relative to a control effected without the compound.

Aurora-A (h) = target: T3, Aurora-A (h) (Homo sapiens, UniProt O14965); assay: Upstate kinase panel: Aurora-A
T3 construct: purchased Upstate
T3 sequence (O14965 1-403): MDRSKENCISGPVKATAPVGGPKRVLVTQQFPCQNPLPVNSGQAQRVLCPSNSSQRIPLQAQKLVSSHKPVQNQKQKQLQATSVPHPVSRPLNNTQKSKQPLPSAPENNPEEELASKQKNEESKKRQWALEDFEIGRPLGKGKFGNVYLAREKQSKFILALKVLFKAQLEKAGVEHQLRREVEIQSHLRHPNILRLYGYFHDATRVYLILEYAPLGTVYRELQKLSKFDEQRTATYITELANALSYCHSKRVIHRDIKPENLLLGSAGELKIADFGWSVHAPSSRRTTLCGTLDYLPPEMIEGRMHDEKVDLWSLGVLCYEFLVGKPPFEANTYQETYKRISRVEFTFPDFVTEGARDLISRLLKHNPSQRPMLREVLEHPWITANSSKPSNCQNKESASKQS
Protocol: as §1

JAK3 (h) = target: T4, JAK3 (h) (Homo sapiens, UniProt P52333); assay: Upstate kinase panel: JAK3
T4 construct: purchased Upstate
T4 sequence (P52333 1-1124): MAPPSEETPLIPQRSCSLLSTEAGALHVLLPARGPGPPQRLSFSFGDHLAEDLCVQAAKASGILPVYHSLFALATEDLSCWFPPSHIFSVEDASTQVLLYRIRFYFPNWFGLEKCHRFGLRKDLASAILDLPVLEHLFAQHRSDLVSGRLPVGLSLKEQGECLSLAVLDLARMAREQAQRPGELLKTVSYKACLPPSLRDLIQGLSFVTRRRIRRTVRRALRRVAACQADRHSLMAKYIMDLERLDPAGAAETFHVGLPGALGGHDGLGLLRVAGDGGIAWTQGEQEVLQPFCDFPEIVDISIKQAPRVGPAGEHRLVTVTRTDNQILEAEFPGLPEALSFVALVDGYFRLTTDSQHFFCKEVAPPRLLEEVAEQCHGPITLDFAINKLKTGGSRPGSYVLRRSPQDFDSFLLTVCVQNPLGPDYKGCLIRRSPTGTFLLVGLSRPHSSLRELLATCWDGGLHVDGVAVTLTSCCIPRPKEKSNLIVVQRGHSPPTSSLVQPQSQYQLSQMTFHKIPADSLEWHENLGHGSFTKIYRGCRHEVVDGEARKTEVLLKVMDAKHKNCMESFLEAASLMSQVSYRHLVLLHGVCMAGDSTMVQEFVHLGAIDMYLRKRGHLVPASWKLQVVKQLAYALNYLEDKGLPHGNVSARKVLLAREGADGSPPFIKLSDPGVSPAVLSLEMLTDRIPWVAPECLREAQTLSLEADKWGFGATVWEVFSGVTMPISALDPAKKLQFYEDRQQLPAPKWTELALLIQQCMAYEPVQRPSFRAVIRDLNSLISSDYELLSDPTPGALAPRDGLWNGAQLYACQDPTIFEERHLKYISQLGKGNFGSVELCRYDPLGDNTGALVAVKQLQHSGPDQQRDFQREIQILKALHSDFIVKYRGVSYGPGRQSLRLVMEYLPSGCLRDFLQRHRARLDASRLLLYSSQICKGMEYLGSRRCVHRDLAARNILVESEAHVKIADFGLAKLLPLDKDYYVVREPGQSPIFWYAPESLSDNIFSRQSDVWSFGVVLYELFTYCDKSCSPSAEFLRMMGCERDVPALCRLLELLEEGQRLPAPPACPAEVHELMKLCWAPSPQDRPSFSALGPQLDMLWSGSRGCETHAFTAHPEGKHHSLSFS
Protocol: as §1

FGFR2 (h) = target: T5, FGFR2 (h) (Homo sapiens, UniProt P21802); assay: Upstate kinase panel: FGFR2; settings: 10 μM ATP
T5 construct: purchased Upstate
Protocol: as §1

c-RAF (h) = target: T6, c-RAF (h) (Homo sapiens, UniProt P04049, Y340D/Y341D); assay: Upstate kinase panel: c-RAF
T6 construct: purchased Upstate
Protocol: as §1

GSK3B (h) = target: T7, GSK3B (h) (Homo sapiens, UniProt P49841); assay: Upstate kinase panel: GSK3B
T7 construct: purchased Upstate
Protocol: as §1

KDR (h) = target: T8, KDR (h) (Homo sapiens, UniProt P35968); assay: Upstate kinase panel: KDR
T8 construct: purchased Upstate
Protocol: as §1

CDK2/cyclinE (h) = target: T9, CDK2/cyclinE (h) (Homo sapiens, UniProt P24941); assay: Upstate kinase panel: CDK2/cyclinE; settings: 10 μM ATP
T9 construct: purchased Upstate
Protocol: as §1

[1] = compound 10 μM, read-out: % inhibition at 10 μMol
[2] = compound 10 μM, 10 μM ATP, read-out: % inhibition at 10 μMol
[3] = compound 1 μM, ATP (15), read-out: % inhibition at 1 μMol
[4] = compound 20 μM, read-out: % inhibition at 20 μMol
[5] = compound 20 μM, 10 μM ATP, read-out: % inhibition at 20 μMol

T8 sequence (P35968 20-1356): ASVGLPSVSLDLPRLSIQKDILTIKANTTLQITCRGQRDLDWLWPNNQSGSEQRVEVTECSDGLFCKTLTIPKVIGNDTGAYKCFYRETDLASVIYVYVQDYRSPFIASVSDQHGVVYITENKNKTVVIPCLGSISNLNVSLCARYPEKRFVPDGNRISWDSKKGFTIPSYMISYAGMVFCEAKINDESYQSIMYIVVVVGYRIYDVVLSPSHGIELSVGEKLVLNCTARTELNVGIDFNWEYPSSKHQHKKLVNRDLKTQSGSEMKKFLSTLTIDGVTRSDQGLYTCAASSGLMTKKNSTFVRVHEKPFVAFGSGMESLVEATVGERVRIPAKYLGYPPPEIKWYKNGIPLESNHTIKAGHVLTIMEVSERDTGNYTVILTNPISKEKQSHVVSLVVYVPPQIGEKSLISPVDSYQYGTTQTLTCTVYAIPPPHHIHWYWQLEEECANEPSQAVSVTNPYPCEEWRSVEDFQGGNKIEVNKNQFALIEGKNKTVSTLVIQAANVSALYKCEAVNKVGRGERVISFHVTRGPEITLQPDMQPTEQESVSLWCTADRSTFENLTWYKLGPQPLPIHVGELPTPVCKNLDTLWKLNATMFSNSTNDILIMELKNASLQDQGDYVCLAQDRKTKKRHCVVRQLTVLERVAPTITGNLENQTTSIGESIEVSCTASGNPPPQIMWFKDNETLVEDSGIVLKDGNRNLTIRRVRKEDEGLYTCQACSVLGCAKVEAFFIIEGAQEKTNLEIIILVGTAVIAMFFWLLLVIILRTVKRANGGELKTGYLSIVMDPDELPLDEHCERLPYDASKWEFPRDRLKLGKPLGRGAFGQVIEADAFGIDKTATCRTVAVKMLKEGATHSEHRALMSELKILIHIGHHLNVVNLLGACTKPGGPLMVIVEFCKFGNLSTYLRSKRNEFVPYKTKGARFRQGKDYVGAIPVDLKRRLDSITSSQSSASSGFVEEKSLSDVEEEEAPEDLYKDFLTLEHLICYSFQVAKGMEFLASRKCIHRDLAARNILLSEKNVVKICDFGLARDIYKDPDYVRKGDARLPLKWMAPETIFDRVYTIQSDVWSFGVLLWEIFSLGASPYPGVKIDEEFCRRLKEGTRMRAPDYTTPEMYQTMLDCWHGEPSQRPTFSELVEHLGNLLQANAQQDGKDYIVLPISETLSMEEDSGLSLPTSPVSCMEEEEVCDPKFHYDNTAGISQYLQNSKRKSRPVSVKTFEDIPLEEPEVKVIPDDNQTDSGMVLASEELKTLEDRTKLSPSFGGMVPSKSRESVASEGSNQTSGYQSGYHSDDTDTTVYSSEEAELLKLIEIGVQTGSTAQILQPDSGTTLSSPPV
T6 sequence (P04049 306-648 Y340D/Y341D limits assumed): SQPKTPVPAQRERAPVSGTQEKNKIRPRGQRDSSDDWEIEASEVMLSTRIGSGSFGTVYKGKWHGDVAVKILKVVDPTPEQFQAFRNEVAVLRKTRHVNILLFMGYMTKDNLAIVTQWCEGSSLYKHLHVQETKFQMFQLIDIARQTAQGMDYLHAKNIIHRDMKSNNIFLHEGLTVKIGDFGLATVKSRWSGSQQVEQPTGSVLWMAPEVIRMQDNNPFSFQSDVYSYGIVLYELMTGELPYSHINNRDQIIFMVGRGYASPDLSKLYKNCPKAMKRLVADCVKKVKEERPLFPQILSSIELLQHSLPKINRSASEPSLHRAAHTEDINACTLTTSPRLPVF
T1 sequence (P07949 29-1114): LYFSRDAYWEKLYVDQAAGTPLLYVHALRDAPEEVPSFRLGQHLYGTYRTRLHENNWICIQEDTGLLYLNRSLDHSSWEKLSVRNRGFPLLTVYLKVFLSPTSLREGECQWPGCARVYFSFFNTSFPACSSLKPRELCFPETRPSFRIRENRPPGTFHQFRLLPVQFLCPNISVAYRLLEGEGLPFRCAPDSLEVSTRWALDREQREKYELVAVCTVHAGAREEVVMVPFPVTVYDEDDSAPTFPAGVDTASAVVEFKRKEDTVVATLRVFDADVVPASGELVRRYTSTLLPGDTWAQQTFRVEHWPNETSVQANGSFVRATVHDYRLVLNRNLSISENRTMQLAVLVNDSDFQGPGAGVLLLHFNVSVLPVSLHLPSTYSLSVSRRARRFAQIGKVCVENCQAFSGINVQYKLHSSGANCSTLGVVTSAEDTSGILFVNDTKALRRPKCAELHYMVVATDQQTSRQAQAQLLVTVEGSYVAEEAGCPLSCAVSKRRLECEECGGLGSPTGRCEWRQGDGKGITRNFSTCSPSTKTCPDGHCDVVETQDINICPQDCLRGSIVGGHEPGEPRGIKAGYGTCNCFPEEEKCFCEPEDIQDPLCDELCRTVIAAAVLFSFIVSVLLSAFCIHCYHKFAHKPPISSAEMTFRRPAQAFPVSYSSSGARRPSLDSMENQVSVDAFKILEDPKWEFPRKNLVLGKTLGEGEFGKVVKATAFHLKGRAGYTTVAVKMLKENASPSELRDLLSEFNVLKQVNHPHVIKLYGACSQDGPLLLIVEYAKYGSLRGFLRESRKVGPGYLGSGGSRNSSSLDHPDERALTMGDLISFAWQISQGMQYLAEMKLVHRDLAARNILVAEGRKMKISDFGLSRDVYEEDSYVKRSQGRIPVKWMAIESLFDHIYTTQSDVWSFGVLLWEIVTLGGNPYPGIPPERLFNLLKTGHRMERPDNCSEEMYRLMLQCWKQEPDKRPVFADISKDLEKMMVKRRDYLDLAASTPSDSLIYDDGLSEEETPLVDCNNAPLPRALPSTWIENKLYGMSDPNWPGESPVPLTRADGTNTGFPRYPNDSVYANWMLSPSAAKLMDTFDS
T2 sequence (P08069 31-1367): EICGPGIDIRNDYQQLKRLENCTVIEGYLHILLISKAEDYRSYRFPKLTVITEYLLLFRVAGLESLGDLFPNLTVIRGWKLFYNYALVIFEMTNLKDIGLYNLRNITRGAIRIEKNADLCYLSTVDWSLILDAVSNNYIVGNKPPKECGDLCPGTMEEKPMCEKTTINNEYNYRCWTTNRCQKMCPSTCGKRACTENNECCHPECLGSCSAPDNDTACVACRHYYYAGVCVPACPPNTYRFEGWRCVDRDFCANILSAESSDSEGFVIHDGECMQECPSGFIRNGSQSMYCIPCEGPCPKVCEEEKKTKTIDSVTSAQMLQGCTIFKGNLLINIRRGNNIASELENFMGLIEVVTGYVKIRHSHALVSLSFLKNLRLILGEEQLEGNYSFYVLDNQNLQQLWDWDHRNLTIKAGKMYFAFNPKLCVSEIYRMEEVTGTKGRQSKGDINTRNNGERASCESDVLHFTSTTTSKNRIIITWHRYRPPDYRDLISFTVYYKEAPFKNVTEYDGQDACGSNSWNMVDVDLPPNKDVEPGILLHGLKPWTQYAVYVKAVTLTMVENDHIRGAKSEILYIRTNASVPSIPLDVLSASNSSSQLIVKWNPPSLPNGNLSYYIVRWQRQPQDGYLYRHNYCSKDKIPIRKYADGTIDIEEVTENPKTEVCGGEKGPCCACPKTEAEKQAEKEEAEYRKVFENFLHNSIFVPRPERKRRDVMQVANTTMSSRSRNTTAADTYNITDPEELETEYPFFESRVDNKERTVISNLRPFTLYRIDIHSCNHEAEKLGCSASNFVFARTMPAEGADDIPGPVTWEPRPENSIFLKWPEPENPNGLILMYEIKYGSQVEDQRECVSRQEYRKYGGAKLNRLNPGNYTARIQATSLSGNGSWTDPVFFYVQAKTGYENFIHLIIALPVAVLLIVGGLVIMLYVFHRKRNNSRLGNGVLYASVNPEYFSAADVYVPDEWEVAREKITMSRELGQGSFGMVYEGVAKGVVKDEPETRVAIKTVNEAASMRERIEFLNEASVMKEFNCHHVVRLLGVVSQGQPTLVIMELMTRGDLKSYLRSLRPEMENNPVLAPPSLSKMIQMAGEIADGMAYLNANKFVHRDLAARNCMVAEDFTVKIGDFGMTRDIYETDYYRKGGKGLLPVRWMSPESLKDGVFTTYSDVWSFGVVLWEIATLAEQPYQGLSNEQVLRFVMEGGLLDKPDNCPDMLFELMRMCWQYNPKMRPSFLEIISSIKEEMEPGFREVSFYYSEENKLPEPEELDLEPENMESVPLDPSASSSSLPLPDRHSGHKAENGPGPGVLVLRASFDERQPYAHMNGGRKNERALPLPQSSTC
T7 sequence (P49841 whole entry): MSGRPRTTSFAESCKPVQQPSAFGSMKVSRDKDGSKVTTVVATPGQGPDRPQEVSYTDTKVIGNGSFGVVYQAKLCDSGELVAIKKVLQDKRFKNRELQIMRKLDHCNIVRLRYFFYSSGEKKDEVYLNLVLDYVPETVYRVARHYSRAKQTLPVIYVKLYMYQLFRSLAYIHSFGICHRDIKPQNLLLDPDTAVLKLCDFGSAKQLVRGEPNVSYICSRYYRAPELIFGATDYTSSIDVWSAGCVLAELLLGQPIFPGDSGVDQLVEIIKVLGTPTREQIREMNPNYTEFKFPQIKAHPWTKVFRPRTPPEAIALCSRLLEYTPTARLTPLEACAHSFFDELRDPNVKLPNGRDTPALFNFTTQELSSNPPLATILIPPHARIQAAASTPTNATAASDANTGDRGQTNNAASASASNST

CCOC(=O)c1c[nH]c2c(=O)[nH]c3ccc(S(=O)(=O)Nc4ccc(F)cc4)cc3c12 [Compound 12, 8-(4-Fluorophenylsulfamoyl)-4-oxo-4,5-dihydro-3H-pyrrolo[2,3-c]quinoline-1-ethyl carboxylate]
IC50 (RET): < 0.1 µM
inhibition at 10 µM (IGF-1R (h); [1]): 0%
inhibition at 10 µM (Aurora-A (h); [2]): 94%
inhibition at 10 µM (JAK3 (h); [2]): 50%
inhibition at 10 µM (FGFR2 (h); [1]): 91%
inhibition at 10 µM (c-RAF (h); [2]): 79%
inhibition at 10 µM (GSK3B (h); [2]): 22%
inhibition at 10 µM (KDR (h); [2]): 69%
inhibition at 10 µM (CDK2/cyclinE (h); [1]): 12%

CCOC(=O)c1c[nH]c2c(=O)[nH]c3ccc(-c4cccc(S(C)(=O)=O)c4)cc3c12 [Compound 238, 8-(3-Methanesulfonyl-phenyl)-4-oxo-4,5-dihydro-3H-pyrrolo[2,3-c]quinoline-1-ethyl carboxylate]
IC50 (RET): 0.1 to 1 µM
inhibition at 1 µM (Aurora-A (h); [3]): 24%
inhibition at 1 µM (JAK3 (h); compound 1 μM, ATP (10), read-out: % inhibition at 1 μMol): 5%
inhibition at 1 µM (c-RAF (h); compound 1 μM, ATP (45), read-out: % inhibition at 1 μMol): 3%
inhibition at 1 µM (GSK3B (h); [3]): 0%
inhibition at 1 µM (KDR (h); compound 1 μM, ATP (90), read-out: % inhibition at 1 μMol): 21%

CCOC(=O)c1c[nH]c2c(=O)[nH]c3ccccc3c12 [Compound 1, 4-Oxo-4,5-dihydro-3H-pyrrolo[2,3-c]quinoline-1-ethyl carboxylate]
IC50 (RET): 1 to 10 µM
inhibition at 20 µM (IGF-1R (h); [4]): 42%
inhibition at 20 µM (Aurora-A (h); [5]): 16%
inhibition at 20 µM (JAK3 (h); [5]): 58%
inhibition at 20 µM (FGFR2 (h); [4]): 82%
inhibition at 20 µM (c-RAF (h); [5]): 17%
inhibition at 20 µM (KDR (h); [5]): 100%
inhibition at 20 µM (CDK2/cyclinE (h); [4]): 97%

From patent publication US8426437B2, “Pyrroloquinoline derivatives and their use as protein kinases inhibitors” (Pierre Fabre Medicament, priority 2005, dated 2013)
